Literature values, collected in article PMC2757550 (Bioconjugate chemistry, 2009).

System: mouse vas deferens preparation

Q: Which “removal from preparation by extensive washing (in words)” value does the source give for Dmt-Tic-Glu-NH(CH2)5NH-fluorescein here?
A: The value was “cannot be removed from the mouse vas deferens preparation by extensive washing”.
